Measured values as given in publication PMC3573960 (Molecular Neurodegeneration, 2012).

Assays:
γ-secretase = test: H4-APP751 cell-based assay for secreted Aβ peptides (sandwich ELISA); set-up: species or system human; conditions: H4-APP751 cells, up to 3 μM
Method: Human neuroglioma H4 cells (ATCC, Manassas, VA) were transfected with a pcDNA3.1 (Invitrogen, Carlsbad, CA) plasmid expressing human wild type APP751 cDNA; and a stable cell line was generated using G418 (Invitrogen) selection [55]. Prior to experimentation, H4-APP751 cells were maintained in Dulbecco’s modified Eagle’s high glucose medium with 10% fetal bovine serum, 1% penicillin-streptomycin, 2 mM L-glutamine, and 0.4 mg/mL G418. All culture reagents were from Invitrogen.
Plates were incubated overnight (16–18 h) and supernatant was removed for quantification of Aβ peptides by sandwich ELISA. Cytotoxicity was evaluated using CellTiter 96® AQueous One Solution Cell Proliferation Assay (MTS Assay, Promega, Madison, WI) according to the manufacturer’s protocol.
Aβ peptide levels were quantified by sandwich ELISA. […]
Freshly collected samples of cultured cell supernatant or synthetic peptides (American Peptide Co., Sunnyvale, CA or California Peptide Research, Inc., Napa, CA) for standard curves were diluted with media, and loaded into anti-Aβ antibody-coated plates and incubated at 4°C for about 24 h. Aβ peptides were detected with the 4G8 antibody (Aβ, aa 17–24) conjugated to horseradish peroxidase (Covance, Inc., Princeton, NJ), and SureBlue 3,3’,5,5’-tetramethylbenzidine (TMB) peroxidase substrate (KPL, Inc., Gaithersburg, MA). […]

HEK293 cells = test: CellTiter-Blue cell viability in HEK293 cells expressing NotchΔE; format: cell-based, human; conditions: up to 30 μM
Tg2576 mice [1] = test: Tolerability in chronic treatment study (body weight, organs, survival); format: in vivo, mouse
Method: Male Tg2576 and WT mice were both derived from crosses of male Tg2576 mice and female B6SJLF1 mice (Taconic) and were singly housed upon arrival. […] Some animals were euthanized as described above. For histological studies, a subset of mice were euthanized by CO2 asphyxiation and transcardially perfused with cold 0.9% NaCl. The right hemispheres were immersion fixed in fresh 4% paraformaldehyde in 0.1 M phosphate buffer, pH 7.4 for 1 h, transferred to a 15% sucrose cryoprotectant for 24 h at room temperature, and on the next day, frozen in isopentane chilled by dry ice for 1 min. The left cerebral hemisphere was cut into 2 pieces, weighed, and frozen.

COX-2 = target: T1, COX-2 (Homo sapiens, UniProt P35354); test: COX-2 enzyme assay (Cerep); format: biochemical; conditions: at 30 μM, human recombinant, arachidonic acid 2 μM
T1 construct: purchased Cerep (Redmond, WA) 0727; host or cells: Sf9
T1 sequence (P35354 18-604): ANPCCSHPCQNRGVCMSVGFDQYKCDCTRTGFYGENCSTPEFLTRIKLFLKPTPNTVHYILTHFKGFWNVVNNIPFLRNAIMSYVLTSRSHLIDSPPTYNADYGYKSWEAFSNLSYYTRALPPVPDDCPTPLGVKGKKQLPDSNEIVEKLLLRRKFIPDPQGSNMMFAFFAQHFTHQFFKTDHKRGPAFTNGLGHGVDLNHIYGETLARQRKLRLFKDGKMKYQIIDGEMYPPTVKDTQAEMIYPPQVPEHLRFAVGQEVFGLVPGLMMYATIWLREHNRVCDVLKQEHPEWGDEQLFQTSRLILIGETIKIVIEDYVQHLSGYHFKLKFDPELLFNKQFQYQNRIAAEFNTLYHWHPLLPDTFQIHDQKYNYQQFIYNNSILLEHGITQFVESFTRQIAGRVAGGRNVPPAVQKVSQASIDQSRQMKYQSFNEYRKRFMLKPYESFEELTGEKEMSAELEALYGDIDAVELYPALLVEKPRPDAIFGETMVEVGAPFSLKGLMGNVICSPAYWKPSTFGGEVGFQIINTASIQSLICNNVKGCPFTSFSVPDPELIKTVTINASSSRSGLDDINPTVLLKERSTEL
Method: COX-1 and COX-2 enzyme assays were performed by Cerep (Redmond, WA, Catalog # 0726 and 0727). Briefly, the assays used human recombinant Sf9 cells and arachidonic acid (4 μM for COX-1 and 2 μM for COX-2) as the substrate. Production of PGE2 was detected by enzyme immunoassay.

Tg2576 mice [2] = test: Acute treatment study in Tg2576 mice, brain Aβ by ELISA after TBS extraction; conditions: 4 h
Method: Aβ peptide levels were quantified by sandwich ELISA. Plates were coated overnight at 4°C with either human anti-AβTotal (amino acids [aa] 27–37) or rodent anti-Aβ1-x (aa 1–8) rabbit polyclonal antibodies. For detection of Aβ38 and Aβ42, plates were coated with antibodies specific for the carboxyl-terminal neoepitope of each peptide. Antibodies were from Dr. Pankaj Mehta (Institute for Basic Research in Developmental Disabilities, Staten Island, NY) [58].
The 10 and 30 mg/kg doses were a solution and a suspension, respectively. […] After extraction of the brain, olfactory bulbs and hindbrain were removed and the cerebral hemispheres were cut into 4 pieces. […] All tissue samples were weighed, frozen in liquid nitrogen, and stored at −80°C until analysis.
In order to examine both soluble and insoluble pools of Aβ, sequential extraction of Tg2576 mouse brain samples was performed to produce 4 pools of Aβ, essentially as described elsewhere [37]. Briefly, brains were homogenized in 25 mM TBS, pH 7.4 with protease inhibitors (Mini Complete™) to release the soluble Aβ into the resulting supernatants after high speed ultracentrifugation. […] The extracted Aβ from each step was subjected to ELISA for human Aβ42, Aβ38, and AβTotal, as described above.

O=C(O)[C@H](CC1CCC1)c1cc(Cl)c(OCC(F)(F)F)c(-c2ccc(C(F)(F)F)cc2)c1 [EVP-0015962, (R)-2-(5-chloro-6-(2,2,2-trifluoroethoxy)-4’-(trifluoromethyl)biphenyl-3-yl)-3-cyclobutylpropanoic acid]
levels of AβTotal (γ-secretase): remained unchanged
cell viability (HEK293 cells): did not affect
mortality (percent of group lost) (Tg2576 mice [1]; Tg2576 mice, 60 mg/kg/day, 50 weeks): 25%
body weight among the treatment groups (Tg2576 mice [1]; Tg2576 mice, 20 or 60 mg/kg/day, 50 weeks): no significant differences
effects on intestinal goblet cells or any other organ system examined (Tg2576 mice [1]; satellite animals, up to 60 mg/kg/day, 11 weeks): no evidence of effects
percent inhibition for COX-2 (COX-2): 56%
decrease in brain Aβ42 compared to vehicle-treated mice (Tg2576 mice [2]; 10 mg/kg p.o., TBS extraction (NS)): 22%
decrease in brain Aβ42 compared to vehicle-treated mice (Tg2576 mice [2]; 30 mg/kg p.o., TBS extraction (p < 0.05)): 39%
brain AβTotal (Tg2576 mice [2]; 10 or 30 mg/kg p.o.): remained unchanged
